Key:
[1] = target: T1, GDP-mannose dehydrogenase (GMD) (Pseudomonas aeruginosa, UniProt P11759); assay: intact protein ESI-MS; format: binding; conditions: covalent; overnight incubation; single adduct; site Lys324 only predicted by docking
T1 construct: gene algD; recombinant GMD

[2] = target: T1, GDP-mannose dehydrogenase (GMD); assay: NADH fluorescence assay, dilution series; format: biochemical

T1 sequence (P11759 whole entry): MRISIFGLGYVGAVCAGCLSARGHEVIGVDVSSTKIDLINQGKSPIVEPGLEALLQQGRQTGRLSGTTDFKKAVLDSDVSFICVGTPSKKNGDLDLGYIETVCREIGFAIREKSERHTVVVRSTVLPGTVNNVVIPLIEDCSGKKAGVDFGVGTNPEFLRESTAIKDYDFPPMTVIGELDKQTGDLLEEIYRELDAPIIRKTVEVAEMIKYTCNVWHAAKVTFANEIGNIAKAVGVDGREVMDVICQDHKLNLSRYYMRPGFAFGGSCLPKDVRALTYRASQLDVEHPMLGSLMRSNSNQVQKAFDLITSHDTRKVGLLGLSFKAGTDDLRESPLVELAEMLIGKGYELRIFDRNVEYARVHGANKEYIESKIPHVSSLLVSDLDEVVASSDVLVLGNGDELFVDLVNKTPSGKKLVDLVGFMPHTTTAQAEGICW

CC(=O)C1=C(O)C=C2Oc3c4c(c(C)c(O)c3[C@@]2(C)C1=O)O/C(=C\c1ccc(O)cc1)C4=O [compound 13, 13]
intact protein ESI-MS [1]: ESI-MS indicated clear evidence of a single GMD-13 adduct | IC50 [2]: 16.7 ± 2.12 µM

From PMC10619135, “Virtual screening, identification and in vitro validation of small molecule GDP-mannose dehydrogenase inhibitors” (RSC Chemical Biology, 2023)
